According to ChEMBL document CHEMBL1201862, “PubChem BioAssay data set” (2004):
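Five compound concentrations were applied to cells in 96-well plates for 48 hours; endpoints were derived by simple linear interpolation of the resulting dose-response curve. At the GI50, growth is halved.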 Activity calls are given as the source filed them. Rule as the data show it: active = GI50 up to about 1.1 µM and inactive = higher.

Legend:
Assay in all cases: NCI-60 cell line screen, 48 h
[1] = tested on: CAKI-1
[2] = tested on: DU-145
[3] = tested on: HCC 2998
[4] = tested on: IGROV-1
[5] = tested on: LOX IMVI
[6] = tested on: M14
[7] = tested on: MCF7
[8] = tested on: MDA-MB-231
[9] = tested on: MDA-MB-435
[10] = tested on: MDA-N
[11] = tested on: NCI-H23
[12] = tested on: RPMI-8226
[13] = tested on: SF-539
[14] = tested on: SK-MEL-2
[15] = tested on: SNB-19
[16] = tested on: SNB-75
[17] = tested on: SW-620
[18] = tested on: T47D
[19] = tested on: UACC-257
[20] = tested on: HL-60

SMILES | GI50 [1] | GI50 [2] | GI50 [3] | GI50 [4] | GI50 [5] | GI50 [6] | GI50 [7] | GI50 [8] | GI50 [9] | GI50 [10] | GI50 [11] | GI50 [12] | GI50 [13] | GI50 [14] | GI50 [15] | GI50 [16] | GI50 [17] | GI50 [18] | GI50 [19] | GI50 [20]
N=C(N)N/N=C(/c1ccccc1)c1ccc(O)cc1O | 51.5 µM (inactive) | 33 µM (inactive) | 16.9 µM (inactive) | 25.1 µM (inactive) | 34.9 µM (inactive) | 23 µM (inactive) | 30.7 µM (inactive) | 45.1 µM (inactive) | 19.1 µM (inactive) | 11.7 µM (inactive) | 31.8 µM (inactive) | 30.5 µM (inactive) | 18.5 µM (inactive) | 45.7 µM (inactive) | 40.6 µM (inactive) | 49 µM (inactive) | 36.7 µM (inactive) | 45.3 µM (inactive) | 35.6 µM (inactive) | 
Cc1cc(C)c2c(SCc3ccc(Cl)cc3Cl)nc(N)nc2n1 | > 100 µM (inactive) | > 100 µM (inactive) |  | 28.7 µM (inactive) | 28.9 µM (inactive) | 82.6 µM (inactive) | 31.6 µM (inactive) | > 100 µM (inactive) | 83 µM (inactive) | > 100 µM (inactive) | > 100 µM (inactive) | 60.7 µM (inactive) |  | 50.1 µM (inactive) | 58.9 µM (inactive) | 58.6 µM (inactive) | > 100 µM (inactive) | 17.2 µM (inactive) | 4.6 µM (inactive) | > 100 µM (inactive)
Cc1csc2nc(-c3ccc(Cl)c([N+](=O)[O-])c3)c(/C=N/NC(=N)N)n12 | 1.83 µM (inactive) | 2.16 µM (inactive) |  |  | 1.51 µM (inactive) | 1.74 µM (inactive) | 1.26 µM (inactive) | 1.77 µM (inactive) | 1.69 µM (inactive) | 1.32 µM (inactive) | 1.7 µM (inactive) | 1.75 µM (inactive) | 1.61 µM (inactive) | 1.22 µM (inactive) | 1.3 µM (inactive) | 1.57 µM (inactive) | 0.384 µM (active) | 1.81 µM (inactive) | 0.459 µM (active) | 1.7 µM (inactive)
Cn1c(=O)c2ccccc2c2ccccc21 | 24.7 µM (inactive) | 47.4 µM (inactive) | 56.8 µM (inactive) |  | 64.4 µM (inactive) | 49.7 µM (inactive) | 31.5 µM (inactive) | 56.6 µM (inactive) | 56.8 µM (inactive) | 47.8 µM (inactive) | 69.7 µM (inactive) | 37.8 µM (inactive) | 38 µM (inactive) | 89.1 µM (inactive) | 64 µM (inactive) | 44.9 µM (inactive) | 45.2 µM (inactive) | 57.8 µM (inactive) | 81.1 µM (inactive) | 
N/C(=N\N=C\c1nc2ccccc2o1)c1cnccn1 | > 100 µM (inactive) | > 100 µM (inactive) |  | > 100 µM (inactive) | > 100 µM (inactive) | > 100 µM (inactive) | > 100 µM (inactive) | 51.2 µM (inactive) | > 100 µM (inactive) | > 100 µM (inactive) | 83.8 µM (inactive) | > 100 µM (inactive) | > 100 µM (inactive) | 80.7 µM (inactive) | > 100 µM (inactive) | 16.4 µM (inactive) | > 100 µM (inactive) | 51.4 µM (inactive) | > 100 µM (inactive) | 49.9 µM (inactive)
CN1C(=O)C(c2c[nH]c3ccccc23)N(C)C(=O)C1c1c[nH]c2ccccc12 (stereo not given) | > 100 µM (inactive) | > 100 µM (inactive) | > 100 µM (inactive) | > 100 µM (inactive) | > 100 µM (inactive) | > 100 µM (inactive) | > 100 µM (inactive) | 34.2 µM (inactive) | > 100 µM (inactive) | > 100 µM (inactive) | > 100 µM (inactive) |  | 86.5 µM (inactive) |  | > 10 µM (inactive) | 33.8 µM (inactive) | > 100 µM (inactive) | > 100 µM (inactive) | > 100 µM (inactive) | > 100 µM (inactive)
COc1ccc(CCN2C(=O)CC34C=CC(CC3C2=O)O4)cc1OC (stereo not given) | > 100 µM (inactive) | > 100 µM (inactive) | > 100 µM (inactive) | > 100 µM (inactive) | > 100 µM (inactive) | > 100 µM (inactive) | > 100 µM (inactive) | > 100 µM (inactive) | > 100 µM (inactive) | > 100 µM (inactive) | > 100 µM (inactive) | > 100 µM (inactive) | > 100 µM (inactive) | > 100 µM (inactive) | > 100 µM (inactive) |  | > 100 µM (inactive) | > 100 µM (inactive) | > 100 µM (inactive) | > 100 µM (inactive)
C=CCOCn1ccc(=O)[nH]c1=O | > 100 µM (inactive) | > 100 µM (inactive) | > 100 µM (inactive) | > 100 µM (inactive) | > 100 µM (inactive) | > 100 µM (inactive) | > 100 µM (inactive) | > 100 µM (inactive) | > 100 µM (inactive) | > 100 µM (inactive) | > 100 µM (inactive) | > 100 µM (inactive) | > 100 µM (inactive) |  | > 100 µM (inactive) | > 100 µM (inactive) | > 100 µM (inactive) | > 100 µM (inactive) | > 100 µM (inactive) | > 100 µM (inactive)
CCC1CC2CN3CCc4c([nH]c5c(-c6c(OC)ccc7c8c([nH]c67)[C@]6(C(=O)OC)CC7CC(CC)C6N(CC8)C7)c(O)ccc45)[C@](C(=O)OC)(C2)C13 (stereo not given in full) | 12.6 µM (inactive) | 14.9 µM (inactive) | 13.3 µM (inactive) | 14 µM (inactive) | 14.8 µM (inactive) | 24.9 µM (inactive) | 6.82 µM (inactive) | 21.6 µM (inactive) | 11.1 µM (inactive) | 12.2 µM (inactive) | 16 µM (inactive) |  | 19.5 µM (inactive) | 20.9 µM (inactive) | 14.3 µM (inactive) | 14.8 µM (inactive) | 12.4 µM (inactive) | 11.1 µM (inactive) | 18.6 µM (inactive) | 
COC1(OC)CCc2c(sc3ncnc(Nc4cccc(Br)c4)c23)C1 | 30.6 µM (inactive) | 10.9 µM (inactive) | > 100 µM (inactive) | 16.7 µM (inactive) | 35.7 µM (inactive) | 44.4 µM (inactive) | 40.5 µM (inactive) | 49.5 µM (inactive) | 62.2 µM (inactive) | 35.4 µM (inactive) | 35.4 µM (inactive) | 17 µM (inactive) | > 100 µM (inactive) | > 100 µM (inactive) | 35.5 µM (inactive) | 26.5 µM (inactive) | 21.7 µM (inactive) | 23.1 µM (inactive) | 87.3 µM (inactive) | 
CC1C=C(NCC2(CO)CCC2)N=C(N)N1 (stereo not given) | > 100 µM (inactive) | > 100 µM (inactive) | > 100 µM (inactive) | > 100 µM (inactive) | > 100 µM (inactive) | > 100 µM (inactive) | > 100 µM (inactive) | > 100 µM (inactive) | > 100 µM (inactive) | > 100 µM (inactive) | > 100 µM (inactive) | > 100 µM (inactive) |  | > 100 µM (inactive) | > 100 µM (inactive) | > 100 µM (inactive) | > 100 µM (inactive) | > 100 µM (inactive) | > 100 µM (inactive) | > 100 µM (inactive)
N#CCOc1cccc(C2(N3CC=CCC3)CCCCC2)c1 | > 100 µM (inactive) | > 100 µM (inactive) |  | > 100 µM (inactive) | 97.9 µM (inactive) | > 100 µM (inactive) | > 100 µM (inactive) | > 100 µM (inactive) | > 100 µM (inactive) | > 100 µM (inactive) | > 100 µM (inactive) | 77.6 µM (inactive) | > 100 µM (inactive) | > 100 µM (inactive) | > 100 µM (inactive) |  | 94 µM (inactive) | > 100 µM (inactive) | 72.3 µM (inactive) | 83.2 µM (inactive)
C[n+]1ccccc1/C=C/c1ccc2c(c1)OCO2 | > 10 µM (inactive) | > 10 µM (inactive) | > 10 µM (inactive) | > 10 µM (inactive) | > 10 µM (inactive) | > 10 µM (inactive) | > 10 µM (inactive) | > 10 µM (inactive) | > 10 µM (inactive) | > 10 µM (inactive) | > 10 µM (inactive) | > 10 µM (inactive) | > 10 µM (inactive) | > 10 µM (inactive) | > 10 µM (inactive) |  | > 10 µM (inactive) | > 10 µM (inactive) | > 10 µM (inactive) | > 10 µM (inactive)
CC1(C)C2CC(=O)C1(C)C(O)C2Br (stereo not given) |  | > 100 µM (inactive) | > 100 µM (inactive) | > 100 µM (inactive) |  | > 100 µM (inactive) | > 100 µM (inactive) | > 100 µM (inactive) | > 100 µM (inactive) | > 100 µM (inactive) | > 100 µM (inactive) |  | > 100 µM (inactive) | > 100 µM (inactive) | > 100 µM (inactive) |  | > 100 µM (inactive) | > 100 µM (inactive) |  | > 100 µM (inactive)
CC[C@H](C)[C@H](NC(=O)[C@@]1(O)[C@H](O)[C@]2(CC)C=CCN3CC[C@@]4(c5cc(Br)c(OC)cc5N(C)[C@@H]14)[C@@H]32)C(=O)OC | 22.5 µM (inactive) | > 100 µM (inactive) | 23.8 µM (inactive) | 26.3 µM (inactive) | 16.8 µM (inactive) | 22.1 µM (inactive) | 35.6 µM (inactive) | 15.7 µM (inactive) | 20.5 µM (inactive) | 25.6 µM (inactive) | 86.1 µM (inactive) | 14.2 µM (inactive) | 27.5 µM (inactive) | 26.2 µM (inactive) | 64.3 µM (inactive) |  | 29 µM (inactive) | 52.4 µM (inactive) | 24.9 µM (inactive) | 37.8 µM (inactive)
